Measured values from patent US10632105B2, “Pharmacological stimulation to facilitate and restore standing and walking functions in spinal cord motor disorders” (ECOLE POLYTECHNIQUE FEDERALE DE LAUSANNE (EPFL), priority 2013, dated 2020).
“Also recorded” adds a separate entry of the source.

Legend:
spinal rats = experiment: Stepping patterns enabled by EES in spinal rats (complete T7 transection, bipedal treadmill); format: in vivo, rat; settings: for locomotion / stepping enabled by EES: treadmill 13 cm/s, clonidine 0.4-0.5 mg/kg, BRL-44408 given 5 min before clonidine in the combination
Experimental: Link R E, Desai K, Hein L, Stevens M E, Chruscinski A, Bernstein D, Barsh G S, Kobilka B K. Science. 1996 Aug. 9; 273(5276):803-5).
All procedures have been described in detail previously (see above, Courtine et al., 2009). Briefly, under general anesthesia and aseptic conditions, a partial laminectomy was performed over spinal segments L2 and S1. Teflon-coated stainless-steel wires (AS632; Cooner Wire) were passed under the spinous processes and above the dura mater of the remaining vertebrae between the partial laminectomy sites.
Bipolar intramuscular EMG electrodes using the same wire type as above were inserted bilaterally in the midbelly of the tibialis anterior (TA), midbelly of the vastus lateralis (VL), distal deep compartment of the semitendinosus (St), and medial deep region of the medial gastrocnemius (MG) muscles. All electrode wires were connected to a percutaneous amphenol connector cemented to the rat skull. In the same surgical intervention, the spinal cord was transected completely at a midthoracic level (T7) (Courtine et al., 2009).
All experimental testing followed the same protocol.
In KO mice experiments, only clonidine was injected intraperitoneally.
Three-dimensional video recordings (200 Hz) were made using the motion capture system VICON. Eight infrared television cameras (200 Hz) were used to track the motion of reflective markers attached bilaterally at the iliac crest, greater trochanter, lateral condyle, lateral malleolus, distal end of the fifth metatarsal [metatarsophalangeal joint (MTP)], and tip of the toe (FIG. 1A). Nexus (Vicon) was used to obtain 3-D coordinates of the markers. The body was modeled as an interconnected chain of rigid segments, and joint angles were generated accordingly.
Moments and ground reaction forces in the vertical, antero-posterior, and mediolateral directions were monitored using a biomechanical force plate (2 kHz; HE6X6; AMTI) located below the treadmill belt (FIG. 1A). Vicon BodyBuilder (Vicon) was used to compute the displacements of the center of foot pressures.
EMG signals (2 kHz) were amplified, filtered (10-1000 Hz bandpass), stored, and analyzed off-line to compute the amplitude, duration, and timing of individual bursts (Courtine et al., 2009).
Ten successive step cycles were extracted for both the left and right hindlimbs from a continuous sequence of stepping on the treadmill for each animal under each condition. When no stepping movements were observed, a 10 s period was recorded and analyzed. A total of 129 parameters quantifying gait, kinematics, kinetics, and EMG features were computed for each limb and gait cycle according to methods described in detail previously (Kinematic and EMG determinants in quadrupedal locomotion of a non-human primate (Rhesus). Courtine G, Roy R R, Hodgson J, McKay H, Raven J, Zhong H, Yang H, Tuszynski M H, Edgerton V R. J Neurophysiol. 2005 June; 93(6):3127-45; Recovery of supraspinal control of stepping via indirect propriospinal relay connections after spinal cord injury. Courtine G, Song B, Roy R R, Zhong H, Herrmann J E, Ao Y, Qi J, Edgerton V R, Sofroniew M V. Nat Med. 2008 January; 14(1):69-74; Transformation of nonfunctional spinal circuits into functional states after the loss of brain input. Courtine G, Gerasimenko Y, van den Brand R, Yew A, Musienko P, Zhong H, Song B, Ao Y, Ichiyama R M, Lavrov I, Roy R R, Sofroniew M V, Edgerton V R. Nat Neurosci. 2009 October; 12(10): 1333-42).
These parameters provided a holistic quantification of locomotor patterns ranging from general features of gait to fine details of limb motions and coordination. To allow direct comparisons between the different experimental conditions, all computed variables were normalized to those measured before drug injection (i.e., during locomotion facilitated by dual-site EES alone).
All data are reported as mean values±SEM. Repeated-measures ANOVAs were used to test differences between locomotor parameters recorded before and after drug injections […]

α2a KO mice = settings: spinal α2a KO mice, EES, clonidine i.p.
Experimental: (§1) The experiments in rats were conducted on adult female Sprague Dawley (300 g body weight). Functional testings in mice were carried out in α2a and α2c knockout animals aged 3-5 months, from both gender, obtained from L. Hein (University of Freiburg, Germany). The generation of the mouse lines lacking α2-adrenoreceptor subtypes has been previously described in detail (Abnormal regulation of the sympathetic nervous system in alpha2A-adrenergic receptor knockout mice. Altman J D, Trendelenburg A U, MacMillan L, Bernstein D, Limbird L, Starke K, Kobilka B K, Hein L. Mol Pharmacol. 1999 July; 56(1):154-61; Targeted inactivation of the gene encoding the mouse alpha 2c-adrenoceptor homolog. Link R E, Stevens M S, Kulatunga M, Scheinin M, Barsh G S, Kobilka B K. Mol Pharmacol. 1995 July; 48(1):48-55; Cardiovascular regulation in mice lacking alpha2-adrenergic receptor subtypes b and c. Link R E, Desai K, Hein L, Stevens M E, Chruscinski A, Bernstein D, Barsh G S, Kobilka B K. Science. 1996 Aug. 9; 273(5276):803-5). To investigate the spinal distribution of the α2 subtypes, we used BAC transgenic mice expressing the reporter protein GFP upstream the coding sequence of the α2a or α2c receptor subtype (strains 014248-UCD and 030098-UCD MMRRC, USA). All procedures were approved by the Veterinary Office of the Canton of Vaud, Switzerland. Animals were housed individually on a 12 h light/dark cycle, with access to food and water ad libitum.
(§2) All tested animals were allowed to recover for 2-5 weeks after lesion to regain stable levels of excitability in the spinal networks to facilitate locomotion via EES (Epidural stimulation induced modulation of spinal locomotor networks in adult spinal rats. Lavrov I, Dy C J, Fong A J, Gerasimenko Y, Courtine G, Zhong H, Roy R R, Edgerton V R. J Neurosci. 2008). An upper body harness was used to position the rats over a treadmill belt and to partially support their body weight during bipedal locomotion (FIG. 1A). An automated, servocontrolled body weight support system (Robomedica) measured and provided the optimal amount of body weight support that each rat needed to step. To facilitate locomotion via EES, monopolar rectangular pulses (0.2 ms duration) were delivered at 40 Hz using two constant-current stimulators (AM Systems) connected to the electrodes positioned at L2 and S1.

α2c KO mice = settings: spinal α2c KO mice, EES, clonidine i.p.
Experimental: as §1, §2

[1] = test system: cats with a complete spinal cord injury; settings: spinal / spinalized cats, complete SCI; cited from earlier work
[2] = test system: humans with a severe spinal cord injury; settings: cited from earlier work
rats with complete SCI = rats with complete SCI (Musienko et al. 2011); cited from earlier work
[3] = 8-OHDPAT in combination with α2c stimulation and/or α2a blocking, locomotion; format: in vivo; settings: 8-OHDPAT in combination with the α2c stimulation or the α2a blocking or both
[4] = 5 weeks after lesion, with EES, i.p., BRL-44408 4-5 mg/kg
[5] = 5 weeks after lesion, with EES, i.p., BRL-44408 4-5 mg/kg, clonidine 0.4 mg/kg
[6] = 2 weeks after lesion, 200 umol/kg, together with EES

With `CC1c2ccccc2CN1CC1=NCCN1` (centres unmarked) [BRL-44408, 2-[(4,5-Dihydro-1H-imidazol-2-yl)methyl]-2,3-dihydro-1-methyl-1H-isoindole] the “locomotion / stepping enabled by EES” value (spinal rats; [4]) was “improved locomotion; also recorded: moderately improves locomotion”, the paw dragging (spinal rats; [5]) was “reduced paw dragging” and the step height (spinal rats; [5]) was “substantially improved the step height”.

With `Clc1cccc(Cl)c1N=C1NCCN1` [clonidine] the “locomotion / stepping enabled by EES” value (spinal rats; [4]) was “abolished the stepping enabled by EES”, the locomotor function (α2a KO mice) was “triggered a facilitation of the locomotor function” and the locomotor stability (α2a KO mice) was “improvement of locomotor stability”. For the same compound, the “movement magnitudes of the hindlimb joints” value (α2a KO mice) was “increase of the movement magnitudes of the hindlimb joints”, the locomotor abilities (α2c KO mice) was “significant blocking of the locomotor abilities” and the locomotion [1] was “marked facilitation of locomotion”. For the same compound, the locomotion ([2]; human, clonidine injections (Dietz et al. 1995)) was “dysfacilitated locomotion”, the “locomotor EMG activity” value ([2]; humans with a severe spinal cord injury, low clonidine dosages (Dietz et al., 1995)) was “suppress or markedly reduce locomotor EMG activity” and the stepping (rats with complete SCI) was “abolished stepping”.

For `CCCN(CCC)C1CCc2cccc(O)c2C1` (centres unmarked) [8-OHDPAT], the locomotion [3] was “further facilitation of locomotion”.

In the case of `NC1=N[C@@H](Cc2c(F)cccc2F)CO1` [formula (I)], the locomotion (spinal rats; 2 weeks after lesion, 200 umol/kg, effect exclusively when applied together with spinal cord stimulation (EES)) was “significantly improved locomotion”, the limb amplitude (spinal rats; [6]) was “increased the limb amplitude” and the paw dragging (spinal rats; [6]) was “reduced the paw dragging”.

In the case of `Clc1ccc2nsnc2c1NC1=NCCN1` [tizanidine], the locomotion [1] is given as “facilitated expression of locomotion”.
